Tests used:
[1] = target: T1, Cannabinoid receptor 1 (Homo sapiens, UniProt P21554); assay: Displacement of [3H]CP55940 from recombinant human CB1 receptor expressed in HEK293 cell membrane incubated for 90 mins by competition binding assay; format: cell membranes
[2] = target: T1, Cannabinoid receptor 1; assay: Displacement of [3H]CP55940 from recombinant human CB1 receptor expressed in HEK293 cell membrane assessed as inhibition constant incubated for 90 mins by competition binding assay; format: cell membranes
[3] = target: T2, Cannabinoid receptor 2 (Homo sapiens, UniProt P34972); assay: Displacement of [3H]CP55940 from recombinant human CB2 receptor expressed in HEK293 cell membrane incubated for 90 mins by competition binding assay; format: cell membranes
[4] = target: T2, Cannabinoid receptor 2; assay: Displacement of [3H]CP55940 from recombinant human CB2 receptor expressed in HEK293 cell membrane assessed as inhibition constant incubated for 90 mins by competition binding assay; format: cell membranes
[5] = target: T2, Cannabinoid receptor 2; assay: Agonist activity at human CB2 receptor expressed in CHO-K1 cells assessed as reduction in NKH-477 induced cAMP production by chemiluminescence based cAMP hunter assay; format: functional, cell-based
[6] = Chemical stability of compound in phosphate buffer at pH 7.4 assessed as compound remaining at 5 uM measured after 0.5 hrs by UHPLC-MS analysis; format: physicochemical; settings: read-out: Stability
[7] = Chemical stability of compound in phosphate buffer at pH 7.4 assessed as compound remaining at 5 uM measured after 1 hrs by UHPLC-MS analysis; format: physicochemical; settings: read-out: Stability
[8] = Chemical stability of compound in phosphate buffer at pH 7.4 assessed as compound remaining at 5 uM measured after 1.5 hrs by UHPLC-MS analysis; format: physicochemical; settings: read-out: Stability
[9] = Chemical stability of compound in phosphate buffer at pH 7.4 assessed as compound remaining at 5 uM measured after 2 hrs by UHPLC-MS analysis; format: physicochemical; settings: read-out: Stability
[10] = test system: Mus musculus; assay: (§1) Cognitive enhancing activity in scopolamine induced amnesia male C57/BL6J mouse model assessed as latency time to enter novel arm at 1 mg/kg, ip preadministered with compound for 10 mins followed by scopolamine administration for 30 mins and measured after 30 mins by Y-maze test (reference value: 21.93 +/- 0.78 sec); format: functional; settings: time 70 min, 1.167 h
[11] = species on record: Homo sapiens; assay: Selectivity ratio of Ki for displacement of [3H]CP55940 from recombinant human CB2 receptor expressed in HEK293 cell membrane to Ki for displacement of [3H]CP55940 from recombinant human CB1 receptor expressed in HEK293 cell membrane; format: cell membranes
[12] = target: T2, Cannabinoid receptor 2; assay: Partial agonist activity at human CB2 receptor expressed in CHO-K1 cells assessed as reduction in NKH-477 induced cAMP production by chemiluminescence based cAMP hunter assay; format: functional, cell-based
[13] = target: T2, Cannabinoid receptor 2; assay: Partial agonist activity at human CB2 receptor expressed in CHO-K1 cells assessed as reduction in NKH-477 induced cAMP production by measuring maximal efficacy by chemiluminescence based cAMP hunter assay relative to control; format: functional, cell-based; settings: filed as partial agonist
[14] = test system: Mus musculus; assay: as §1, with “as” for “as latency time to enter”, “arm exploration time” for “arm”, “9.28” for “21.93”, “1.03” for “0.78”; format: functional; settings: time 70 min, 1.167 h

T2 sequence (P34972 whole entry): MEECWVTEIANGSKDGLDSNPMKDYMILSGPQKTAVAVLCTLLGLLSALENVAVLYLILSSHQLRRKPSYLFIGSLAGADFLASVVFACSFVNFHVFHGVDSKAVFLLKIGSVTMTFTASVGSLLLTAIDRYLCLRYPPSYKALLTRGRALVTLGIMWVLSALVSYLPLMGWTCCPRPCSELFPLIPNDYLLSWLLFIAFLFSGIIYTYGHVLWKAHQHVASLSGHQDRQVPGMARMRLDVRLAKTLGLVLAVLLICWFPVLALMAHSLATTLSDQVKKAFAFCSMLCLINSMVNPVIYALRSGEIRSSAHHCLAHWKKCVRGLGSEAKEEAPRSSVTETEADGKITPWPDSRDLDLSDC
T1 sequence (P21554 whole entry): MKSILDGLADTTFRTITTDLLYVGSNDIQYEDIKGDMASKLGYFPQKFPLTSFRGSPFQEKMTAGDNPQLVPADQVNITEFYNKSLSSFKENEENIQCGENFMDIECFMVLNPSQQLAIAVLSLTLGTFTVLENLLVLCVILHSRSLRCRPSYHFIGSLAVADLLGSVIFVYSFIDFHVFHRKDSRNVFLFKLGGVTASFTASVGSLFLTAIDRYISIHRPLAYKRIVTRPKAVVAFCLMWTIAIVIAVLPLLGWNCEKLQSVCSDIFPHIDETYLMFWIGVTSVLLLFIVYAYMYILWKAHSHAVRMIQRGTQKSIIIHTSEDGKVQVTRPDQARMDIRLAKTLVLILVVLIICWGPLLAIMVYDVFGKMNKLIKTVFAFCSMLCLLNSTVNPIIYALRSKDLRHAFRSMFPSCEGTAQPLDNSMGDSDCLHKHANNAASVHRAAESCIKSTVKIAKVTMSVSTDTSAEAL

| Structure (SMILES) | IC50 ([1]; read-out: IC50) [µM] | Ki ([2]; read-out: Ki) [µM] | IC50 ([3]; read-out: IC50) [µM] | Ki ([4]; read-out: Ki) [µM] | also measured |
| --- | --- | --- | --- | --- | --- |
| O=C(c1ccccc1Cl)c1cccn1Cc1ccc(O)cc1 | > 10 | > 10 | > 10 | > 10 |  |
| O=C(NCc1ccco1)c1cccn1Cc1ccc(-c2ccccc2)cc1 | > 10 | > 10 | 1.47 | 0.23 |  |
| CC(=O)OCCn1cccc1C(=O)c1ccccc1Cl | > 10 | > 10 | > 10 | > 10 |  |
| Cc1ccc(Cn2cccc2C(=O)c2ccc(Cl)cc2)cc1 | > 10 | > 10 | > 10 | > 10 |  |
| O=C(c1ccccc1Cl)c1cccn1Cc1cccc(O)c1 | > 10 | > 10 | > 10 | > 10 |  |
| O=C(NC12CC3CC(CC(C3)C1)C2)c1cccn1Cc1ccc(F)cc1 | > 10 | > 10 | 0.07 | 0.01 | EC50 [5]: 2.36 µM; remaining at 0.5 h, 5 µM [6]: 98.6%; remaining at 1 h, 5 µM [7]: 98.8%; remaining at 1.5 h, 5 µM [8]: 99.2%; remaining at 2 h, 5 µM [9]: 102% |
| O=C(CCO)N[C@@H](Cc1ccc(O)cc1)C(=O)Nc1ccc(O)cc1 | > 10 | > 10 | > 10 | > 10 |  |
| O=C(O)CCCn1cccc1C(=O)c1ccccc1Cl | > 10 | > 10 | > 10 | > 10 |  |
| O=C(Nc1ccc(O)cc1)[C@@H]1Cc2ccccc2CN1C(=O)CCO | > 10 | > 10 | > 10 | > 10 |  |
| O=C(c1ccc(Cl)cc1)c1cccn1Cc1ccco1 | > 10 | > 10 | > 10 | > 10 |  |
| COc1ccc(C(=O)c2c(C)n(CCN3CCOCC3)c3cc(I)ccc23)cc1 |  |  |  |  | Time [10]: 9.28 s |
| O=C(CCO)N[C@@H](Cc1c[nH]c2ccccc12)C(=O)Nc1ccc(O)cc1 | > 10 | > 10 | > 10 | > 10 |  |
| O=C(NCc1ccc(O)cc1)c1cccn1Cc1ccc(F)cc1 | > 10 | > 10 | > 10 | > 10 |  |
| O=C(CO)Nc1cccc(NC(=O)c2cccnc2)c1 | > 10 | > 10 | > 10 | > 10 |  |
| CC(=O)Oc1ccc(Cn2cccc2C(=O)c2ccccc2Cl)cc1 | > 10 | > 10 | > 10 | > 10 |  |
| Cc1ccc(NC(=O)c2cccn2Cc2ccc(F)cc2)cc1 | 6.13 | 1.03 | 1.32 | 0.27 | Ratio Ki [11]: 5 |
| O=C(O)CC(=O)N[C@@H](Cc1c[nH]c2ccccc12)C(=O)Nc1ccc(O)cc1 | > 10 | > 10 | > 10 | > 10 |  |
| CCCC(C)(C)c1ccc2c(c1)OC(C)(C)[C@@H]1CC=C(C)C[C@@H]21 |  | 0.281 |  | 0.005 | EC50 [5]: 0.09 µM |
| N=C(N)NCCCn1cccc1C(=O)c1ccccc1Cl | > 10 | > 10 | > 10 | > 10 |  |
| O=C(NCc1cccc(O)c1)c1cccn1Cc1ccc(F)cc1 | > 10 | > 10 | > 10 | > 10 |  |
| O=C(NCCO)[C@@H]1Cc2ccccc2CN1C(=O)c1ccc(O)cc1 | > 10 | > 10 | > 10 | > 10 |  |

| Structure (SMILES) | IC50 ([1]; read-out: IC50) [µM] | Ki ([2]; read-out: Ki) [µM] | IC50 ([3]; read-out: IC50) [µM] | Ki ([4]; read-out: Ki) [µM] | also measured |
| --- | --- | --- | --- | --- | --- |
| O=C(NCc1ccccc1)c1cccn1Cc1ccc(F)cc1 | > 10 | > 10 | 4.6 | 0.706 |  |
| CCOC(=O)CCCn1cccc1C(=O)c1ccccc1Cl | > 10 | > 10 | > 10 | > 10 |  |
| Nc1cccc(C(=O)Nc2cccc(NC(=O)CO)c2)c1 | > 10 | > 10 | > 10 | > 10 |  |
| CC(=O)Oc1cccc(Cn2cccc2C(=O)c2ccccc2Cl)c1 | > 10 | > 10 | 9.83 | 1.56 |  |
| O=C(Nc1cccc2ccccc12)c1cccn1Cc1ccc(F)cc1 | > 10 | > 10 | 0.39 | 0.06 | EC50 [12]: 6.11 µM; Emax [13]: 43.1%; remaining at 0.5 h, 5 µM [6]: 101%; remaining at 1 h, 5 µM [7]: 101%; remaining at 1.5 h, 5 µM [8]: 103%; remaining at 2 h, 5 µM [9]: 99.2% |
| Cc1ccc(C(=O)c2cccn2S(=O)(=O)c2ccc(C)cc2)cc1 | > 10 | > 10 | > 10 | > 10 |  |
| O=C(OCCCCn1cccc1C(=O)c1ccccc1Cl)c1ccccc1 | > 10 | > 10 | > 10 | > 10 |  |
| CC(=O)OCCCCn1cccc1C(=O)c1ccccc1Cl | > 10 | > 10 | 7.91 | 1.26 |  |
| O=C(c1ccccc1Cl)c1cccn1CC12CC3CC(CC(C3)C1)C2 | > 10 | > 10 | 4.22 | 0.67 |  |
| Cc1c(C(=O)NN2CCCCC2)nn(-c2ccc(Cl)cc2Cl)c1-c1ccc(I)cc1 |  |  |  |  | Time [10]: 11.01 s; Time [14]: 28.6 s |
| O=C(Nc1cccc(CO)c1)c1cccn1Cc1ccc(F)cc1 | > 10 | > 10 | 1.59 | 0.25 |  |
| CCCCCNC(=O)c1cccn1Cc1ccc(F)cc1 | > 10 | > 10 | > 10 | > 10 |  |
| Cc1ccc(CNC(=O)c2cccn2Cc2ccc(F)cc2)cc1 | > 10 | > 10 | > 10 | > 10 |  |
| CC(=O)NCCCCn1cccc1C(=O)c1ccccc1Cl | > 10 | > 10 | > 10 | > 10 |  |
| COC(=O)CCCn1cccc1C(=O)c1ccccc1Cl | > 10 | > 10 | > 10 | > 10 |  |
| Cc1ccc(S(=O)(=O)n2cccc2C(=O)c2ccc(Cl)cc2)cc1 |  |  |  |  | IC50 ([1]; hek293): Not Determined(Insoluble); Ki ([2]; hek293): Not Determined(Insoluble); IC50 ([3]; hek293): Not Determined(Insoluble); Ki ([4]; hek293): Not Determined(Insoluble) |
| Cc1ccc(S(=O)(=O)n2cccc2C(=O)c2ccccc2)cc1 | > 10 | > 10 | > 10 | > 10 |  |
| O=C(c1ccccc1Cl)c1cccn1CCCCO | > 10 | > 10 | > 10 | > 10 |  |
| Nc1ccc(CNC(=O)c2cccn2Cc2ccc(F)cc2)cc1 | > 10 | > 10 | > 10 | > 10 |  |
| CCCCCn1cccc1C(=O)c1ccc(C)cc1 | > 10 | > 10 | > 10 | > 10 |  |
| CC(=O)OCCCCn1cccc1C(=O)NCc1ccccc1 | > 10 | > 10 | > 10 | > 10 |  |

— ChEMBL document CHEMBL5512638, “Novel pyrrole based CB2 agonists: New insights on CB2 receptor role in regulating neurotransmitters' tone” (Eur J Med Chem, 2024)
